In patent US20220242812A1, “SWELL1-LRRC8 COMPLEX MODULATORS” (Washington University, priority 2019, published 2022):
pIC50: −log10 of the molar value. Read-outs that look alike come from different tables or passages of the source.

Experiments:
[1] = target: T1, CYP 3A4 (Homo sapiens, UniProt P08684); experiment: Cytochrome P450 inhibition assay, CYP 3A4; type: in vitro ADME; details: human liver microsomes
T1 construct: Human liver microsomes were diluted in Potassium phosphate buffer; tissue Charles River Laboratory (performed the study); host or cells: human liver microsomes
T1 sequence (P08684 whole entry): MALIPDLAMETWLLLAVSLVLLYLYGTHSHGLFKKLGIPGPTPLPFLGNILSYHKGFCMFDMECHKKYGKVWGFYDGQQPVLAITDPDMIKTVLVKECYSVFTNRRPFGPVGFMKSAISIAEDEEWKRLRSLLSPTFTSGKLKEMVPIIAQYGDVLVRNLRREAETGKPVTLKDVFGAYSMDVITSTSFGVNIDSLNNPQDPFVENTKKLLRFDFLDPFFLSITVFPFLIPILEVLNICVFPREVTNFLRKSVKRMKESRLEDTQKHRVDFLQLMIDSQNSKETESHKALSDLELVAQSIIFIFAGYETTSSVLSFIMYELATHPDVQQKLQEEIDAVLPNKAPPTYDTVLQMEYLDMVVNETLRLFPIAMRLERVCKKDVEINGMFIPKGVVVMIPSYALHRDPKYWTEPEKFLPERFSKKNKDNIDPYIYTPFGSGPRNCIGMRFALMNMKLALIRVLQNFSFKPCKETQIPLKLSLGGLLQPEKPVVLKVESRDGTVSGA

[2] = target: T2, CYP 2C9 (Homo sapiens, UniProt P11712); experiment: Cytochrome P450 inhibition assay, CYP 2C9; type: in vitro ADME; details: human liver microsomes
T2 construct: Human liver microsomes were diluted in Potassium phosphate buffer; tissue Charles River Laboratory (performed the study); host or cells: human liver microsomes
T2 sequence (P11712 whole entry): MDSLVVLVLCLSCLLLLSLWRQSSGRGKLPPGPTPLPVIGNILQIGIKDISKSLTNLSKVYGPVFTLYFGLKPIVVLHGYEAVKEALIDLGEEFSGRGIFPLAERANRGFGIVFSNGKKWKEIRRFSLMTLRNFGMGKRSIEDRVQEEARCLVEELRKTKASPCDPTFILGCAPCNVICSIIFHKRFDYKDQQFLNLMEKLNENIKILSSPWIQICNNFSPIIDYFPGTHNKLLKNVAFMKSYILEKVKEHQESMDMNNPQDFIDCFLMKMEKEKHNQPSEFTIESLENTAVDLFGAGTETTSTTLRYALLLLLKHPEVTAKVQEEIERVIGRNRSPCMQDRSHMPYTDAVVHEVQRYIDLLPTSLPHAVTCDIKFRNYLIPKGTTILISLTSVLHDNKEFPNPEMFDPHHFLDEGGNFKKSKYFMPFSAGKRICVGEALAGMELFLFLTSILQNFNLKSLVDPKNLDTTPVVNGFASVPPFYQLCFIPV

[3] = In vivo pharmacokinetics in mice; details: for bioavailability: male, C57/BL6, mouse, plasma, po, 5 mg/kg, AUCp.o./AUCi.v.; for AUCinf / Cmax / T-half: single dose 5 mg/kg
Description: Male C57/BL6 mice were used in the study and assessed for a single dose (5 mg/kg) administration. The compounds were prepared in Cremaphor for i.p. and p.o dose routes and in 5% ethanol, 10% Tween-20 and water mix for i.v. route at a final concentration of 1 mg/ml. […] The blood samples were collected in tubes with K2 EDTA anticoagulant and further processed to collect plasma by centrifugation at 3500 rpm at 5° C. for 10 min Samples were further processed in LC/MS to determine the concentration of the compounds. Non-compartmental analysis was performed to obtain the PK parameters using the PKPlus software package (Simulation Plus). The area under the plasma concentration-time curve (AUCint) is calculated from time 0 to infinity where the Cmax is the maximal concentration achieved in plasma and t112 is the terminal elimination half-life. Oral bioavailability was calculated as AUCorailAUC1v*100.

[4] = Microsomal metabolic stability assay; type: in vitro ADME; details: human liver microsomes; read-out: Human hepatic microsome stability Clintrinsic
Description: In vitro ADMET studies were performed at Charles River Laboratory as outlined below. For the Caco-2 permeability assay, the cells were cultured (DMEM, 10% FBS, 1% L-Glutamax and 1% PenStrep) for 21 days. HBSS was used as the transport buffer and the TEER measurements were taken before the start of the assay. Compounds were added apical side to determine apical to basolateral transport (A-B) and basal side to determine basolateral to apical transport (B-A). Samples (10 μL) were collected at time 0 and 2 h and diluted (5×) with transport buffer. After the quenching reaction, the samples were further diluted in MilliQ water for bioanalysis. […] The analyte levels (peak area ratios) were measured on apical (A) and basolateral (B) sides at To and T2h-A-B and B-A fluxes were calculated averaging 3 individual measurements. Apparent permeability (Papp, cm/sec) was calculated as dQ (flux)/(dt*area*concentration). The efflux ratio was calculated by Papp(B-A)/Papp(B-A). […] The supernatant was diluted in water and further analyzed in LC/MS autosampler. Half-life (T1/2) was calculated by the formula 0.692/slope where slope is ln(% remaining relative to Tzero vs time). Intrinsic clearance was calculated using the (CLn1)=T112*1/initial concentration*mg prep/g liver*g liver/kg body weight. […]

[5] = system: Caco-2 cell monolayer; experiment: Caco-2 permeability assay; type: in vitro ADME
Description: (§1) In vitro ADMET studies were performed at Charles River Laboratory as outlined below. For the Caco-2 permeability assay, the cells were cultured (DMEM, 10% FBS, 1% L-Glutamax and 1% PenStrep) for 21 days. HBSS was used as the transport buffer and the TEER measurements were taken before the start of the assay. Compounds were added apical side to determine apical to basolateral transport (A-B) and basal side to determine basolateral to apical transport (B-A). Samples (10 μL) were collected at time 0 and 2 h and diluted (5×) with transport buffer. After the quenching reaction, the samples were further diluted in MilliQ water for bioanalysis. The TEER measurements were carried out at the end of the assay and wells with significant decrease in post-assay TEER values were not included in the data and repeated again. The analyte levels (peak area ratios) were measured on apical (A) and basolateral (B) sides at To and T2h-A-B and B-A fluxes were calculated averaging 3 individual measurements. Apparent permeability (Papp, cm/sec) was calculated as dQ (flux)/(dt*area*concentration). The efflux ratio was calculated by Papp(B-A)/[…]. For the microsomal metabolic stability assay, the microsomes were diluted in potassium phosphate buffer to maintain at a final concentration of 0.5 mg/ml in the assay procedure. The compounds were diluted 10-fold in acetonitrile and incubated with the microsomes at 37° C. with gentle shaking. Samples were collected at different timepoints and quenched. The samples were mixed by vortexing for 10 min and centrifuged at 3100 rpm for 10 min at 4° C. The supernatant was diluted in water and further analyzed in LC/MS autosampler. Half-life (T1/2) was calculated by the formula 0.692/slope where slope is ln(% remaining relative to Tzero vs time). Intrinsic clearance was calculated using the (CLn1)=T112*1/initial concentration*mg prep/g liver*g liver/kg body weight. For the cytochrome P450 inhibition assay, the cofactors and substrate were mixed in Potassium phosphate buffer. A stock concentration of 10 mM compounds (in DMSO) were diluted 5-fold in acetonitrile and mixed with cofactor/substrate mixture (2×). Human liver microsomes were diluted in Potassium phosphate buffer for a final concentration (2×) of 0.2 mg/ml and the reaction was initiated by mixing the microsomes with the compound/cofactor/substrate mixture at 37° C. with gentle shaking. Samples were collected at To and T30 min timepoints and quenched. The samples were then centrifuged at 3100 rpm for 5 min at 5-10° C. and the supernatant was diluted in water and further analyzed in LC/MS autosampler. % inhibition was calculated (using peak area ratios) relative to zero inhibition (full activity) and no activity (full inhibition).

[6] = Caco-2 permeability assay; type: in vitro ADME; details: human, Caco-2; for Papp at 2 h: apparent permeability, read-out: Caco-2 10^−6 cm/s
Description: as §1

[7] = system: islets, glucose-stimulated insulin secretion; experiment: Islet perifusion GSIS assay, islets from treated T2D mice; type: in vivo
Description: For patch-clamp studies involving primary mouse cells, the mice were anesthesized by injecting Avertin (0.0125 g/ml in H2O) followed by cervical dislocation. […] Perifusion buffer contained (in mM): 120 NaCl, 24 NaHCO3, 4.8 KCl, 2.5 CaCl, 1.2 MgSO4, 10 HEPES, 2.8 glucose, 27.2 mannitol, 0.25% w/v bovine serum albumin, pH 7.4 with NaOH (300 mOsm/kg). Perifusion buffer kept at 37° C. was circulated at 120 μI/min After 48 min of washing with 2.8 mM glucose solution for stabilization, islets were stimulated with the following sequence: 16 min of 16.7 mM glucose, 40 min of 2.8 mM glucose, 10 min of 30 mM KCl, and 12 min of 2.8 mM glucose. Osmolarity was matched by adjusting mannitol concentration when preparing solution containing 16.7 mM glucose. Serial samples were collected either every 1 or 2 min into 96 wells kept at 4° C. Insulin concentrations were further determined using commercially available ELISA kit (Mercodia). The area under the curve (AUC) for the high-glucose induced insulin release was calculated for time points between 50 to 74/84 min. At the completion of the experiments, islets were further lysed by addition of RIPA buffer and the amount of insulin was detected by ELISA.

SMILES | pIC50 [1] | pIC50 [2] | bioavailability [3] [%] | AUCinf ([3]; Intraperitoneal) [ng·h/mL] | Cmax ([3]; Intraperitoneal) [ng/mL] | T-half ([3]; Intraperitoneal) [h] | AUCinf ([3]; Intravenous) [ng·h/mL] | Cmax ([3]; Intravenous) [ng/mL] | T-half ([3]; Intravenous) [h] | AUCinf ([3]; Oral) [ng·h/mL] | Cmax ([3]; Oral) [ng/mL] | T-half ([3]; Oral) [h] | CLint scaled [4] [mL/min/kg] | Caco-2 permeability ranking [5] | Papp at 2 h [6] [×10⁻⁶ cm/s] | also measured
CCCCC1(C2CCCC2)Cc2cc(OCCCC(=O)O)c(Cl)c(Cl)c2C1=O (centres unmarked) [SN-401, 4-((2-butyl-6,7-dichloro-2-cyclopentyl-1-oxo-2,3-dihydro-1H-inden-5-yl)oxy)butanoic acid] | < 5.00 | > 5.00 | 79 | 23030 | 4367 | 2.056 | 5958 | 5443 | 1.428 | 4682 | 781 | 2.585 | 72.7 | Higher | 8.24 | Caco-2 efflux ranking ([5]; Caco-2): Not; Caco-2 cell monolayer permeability ([5]; in words): good; Perifusion GSIS from isolated islets ([7]; HFD mice, 21 weeks HFD): significantly improved
CCCCC1(C2CCCC2)Cc2cc(OCCCCCC(=O)O)c(Cl)c(Cl)c2C1=O (centres unmarked) [SN-406, 6-((2-butyl-6,7-dichloro-2-cyclopentyl-1-oxo-2,3-dihydro-1H-inden-5-yl)oxy)hexanoic acid] | < 5.00 | < 5.00 | 48 | 18180 | 4300 | 1.809 | 6532 | 15130 | 0.7689 | 3131 | 660.7 | 2.058 | 46.4 | Higher | 1.93 | Plasma concentrations relative to ICl,SWELL inhibitory concentrations ([3]; 5 mg/kg i.p. dosing): transiently approach; Plasma concentrations relative to ICl,SWELL inhibitory concentrations ([3]; 5 mg/kg p.o. dosing): remain well below; Caco-2 efflux ranking [5]: Not; efflux ratio at 2 h ([6]; read-out: Caco-2 efflux ratio B-A/A-B): 1.58; Insulin secretion in perifusion GSIS ([7]; islets of HFD T2D mice, compared to SN071): significantly augmented
